Publication PMC7508466 (Bioorganic & medicinal chemistry letters, 2020)
“Also recorded” adds a separate entry of the source.

Tests used:
human sst2 receptor = human sst2 receptor (Homo sapiens, UniProt P30874); experiment: cAMP functional assay in CHO-K1 cells stably expressing human sst2 receptor; assay type: cell-based; details: for sst2 pEC50±SEM: human sst2, CHO-K1 cells, cAMP, average of two or more independent measurements
hERG channel = hERG channel (Homo sapiens, UniProt Q12809); experiment: hERG inhibition binding assay
CYP450 3A4 = CYP450 3A4 (Homo sapiens, UniProt P08684); experiment: in vitro screening CYP450 inhibition assay, 3A4; assay type: in vitro ADME; details: top concentration tested 10 μM
CYP450 2C9 = CYP450 2C9 (Homo sapiens, UniProt P11712); experiment: in vitro screening CYP450 inhibition assay, 2C9; assay type: in vitro ADME; details: top concentration tested 10 μM
CYP450 2C19 = CYP450 2C19 (Homo sapiens, UniProt P33261); experiment: in vitro screening CYP450 inhibition assay, 2C19; assay type: in vitro ADME; details: top concentration tested 10 μM
CYP450 2D6 = CYP450 2D6 (Homo sapiens, UniProt P10635); experiment: in vitro screening CYP450 inhibition assay, 2D6; assay type: in vitro ADME; details: top concentration tested 10 μM
[1] = oral administration to male SD rats; assay type: in vivo, rat

Chain of hERG channel (Q12809 whole entry): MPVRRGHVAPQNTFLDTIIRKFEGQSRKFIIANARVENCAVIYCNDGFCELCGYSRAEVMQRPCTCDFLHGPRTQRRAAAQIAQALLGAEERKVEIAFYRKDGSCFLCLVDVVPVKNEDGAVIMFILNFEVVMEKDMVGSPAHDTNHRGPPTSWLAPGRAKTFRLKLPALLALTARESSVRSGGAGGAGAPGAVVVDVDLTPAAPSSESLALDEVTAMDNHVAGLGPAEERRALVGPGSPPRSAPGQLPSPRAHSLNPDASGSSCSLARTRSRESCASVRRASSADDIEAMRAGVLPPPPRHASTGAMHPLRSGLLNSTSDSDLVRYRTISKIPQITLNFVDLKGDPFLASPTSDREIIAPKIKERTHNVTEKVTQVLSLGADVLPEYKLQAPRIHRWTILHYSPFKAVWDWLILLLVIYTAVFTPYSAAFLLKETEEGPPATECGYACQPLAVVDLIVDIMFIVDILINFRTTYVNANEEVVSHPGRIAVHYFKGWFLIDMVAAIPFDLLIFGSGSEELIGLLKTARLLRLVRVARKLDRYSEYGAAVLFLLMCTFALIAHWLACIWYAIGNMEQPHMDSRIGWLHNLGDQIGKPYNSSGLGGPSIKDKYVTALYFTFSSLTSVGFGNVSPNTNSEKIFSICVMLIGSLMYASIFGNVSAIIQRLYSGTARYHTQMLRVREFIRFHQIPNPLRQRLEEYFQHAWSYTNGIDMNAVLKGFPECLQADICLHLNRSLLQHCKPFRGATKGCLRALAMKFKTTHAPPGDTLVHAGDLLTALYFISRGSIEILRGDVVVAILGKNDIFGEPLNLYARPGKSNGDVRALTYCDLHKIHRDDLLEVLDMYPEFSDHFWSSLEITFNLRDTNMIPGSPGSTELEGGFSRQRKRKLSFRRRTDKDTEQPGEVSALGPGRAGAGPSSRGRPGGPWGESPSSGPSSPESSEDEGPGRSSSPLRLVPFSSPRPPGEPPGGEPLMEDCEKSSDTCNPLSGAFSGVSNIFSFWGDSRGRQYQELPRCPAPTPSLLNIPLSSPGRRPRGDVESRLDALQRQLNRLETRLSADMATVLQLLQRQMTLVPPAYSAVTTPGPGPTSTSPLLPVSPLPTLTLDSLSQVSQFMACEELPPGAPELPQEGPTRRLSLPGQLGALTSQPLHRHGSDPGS
Chain of human sst2 receptor (P30874 whole entry): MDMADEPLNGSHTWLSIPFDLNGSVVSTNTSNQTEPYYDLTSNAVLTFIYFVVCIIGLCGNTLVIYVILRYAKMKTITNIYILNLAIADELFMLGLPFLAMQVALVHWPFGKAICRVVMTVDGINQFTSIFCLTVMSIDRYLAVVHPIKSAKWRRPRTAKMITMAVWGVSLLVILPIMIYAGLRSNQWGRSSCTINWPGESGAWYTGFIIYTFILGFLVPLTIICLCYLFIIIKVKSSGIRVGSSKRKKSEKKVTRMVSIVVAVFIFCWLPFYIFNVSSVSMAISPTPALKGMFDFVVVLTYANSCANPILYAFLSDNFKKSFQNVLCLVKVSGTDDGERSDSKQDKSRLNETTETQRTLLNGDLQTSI
Chain of CYP450 3A4 (P08684 whole entry): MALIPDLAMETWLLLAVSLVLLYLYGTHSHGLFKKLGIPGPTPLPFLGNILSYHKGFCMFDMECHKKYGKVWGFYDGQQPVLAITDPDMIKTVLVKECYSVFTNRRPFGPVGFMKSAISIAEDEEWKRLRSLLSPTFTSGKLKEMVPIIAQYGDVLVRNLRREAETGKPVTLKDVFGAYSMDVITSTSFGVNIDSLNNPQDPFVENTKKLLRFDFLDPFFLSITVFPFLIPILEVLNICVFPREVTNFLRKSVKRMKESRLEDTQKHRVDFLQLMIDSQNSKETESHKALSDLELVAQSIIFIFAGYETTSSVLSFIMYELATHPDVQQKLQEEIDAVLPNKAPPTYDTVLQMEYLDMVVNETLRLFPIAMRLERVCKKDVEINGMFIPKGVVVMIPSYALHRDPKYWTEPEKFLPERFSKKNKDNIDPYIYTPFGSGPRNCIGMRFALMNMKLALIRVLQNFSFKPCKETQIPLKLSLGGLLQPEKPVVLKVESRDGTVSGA
Chain of CYP450 2C19 (P33261 whole entry): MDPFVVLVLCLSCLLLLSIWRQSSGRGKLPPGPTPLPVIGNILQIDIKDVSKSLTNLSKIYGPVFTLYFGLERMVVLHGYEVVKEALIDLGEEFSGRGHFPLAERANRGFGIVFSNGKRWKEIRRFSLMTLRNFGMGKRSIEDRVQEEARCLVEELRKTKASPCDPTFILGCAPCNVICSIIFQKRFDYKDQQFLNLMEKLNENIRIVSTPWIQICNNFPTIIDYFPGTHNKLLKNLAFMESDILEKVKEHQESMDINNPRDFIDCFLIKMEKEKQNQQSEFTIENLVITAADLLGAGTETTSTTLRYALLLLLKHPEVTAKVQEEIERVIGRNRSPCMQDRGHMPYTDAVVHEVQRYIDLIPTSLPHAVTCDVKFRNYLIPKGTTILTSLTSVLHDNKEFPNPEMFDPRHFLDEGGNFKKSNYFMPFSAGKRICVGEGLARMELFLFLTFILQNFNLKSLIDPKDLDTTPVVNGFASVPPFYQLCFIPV
Chain of CYP450 2D6 (P10635 whole entry): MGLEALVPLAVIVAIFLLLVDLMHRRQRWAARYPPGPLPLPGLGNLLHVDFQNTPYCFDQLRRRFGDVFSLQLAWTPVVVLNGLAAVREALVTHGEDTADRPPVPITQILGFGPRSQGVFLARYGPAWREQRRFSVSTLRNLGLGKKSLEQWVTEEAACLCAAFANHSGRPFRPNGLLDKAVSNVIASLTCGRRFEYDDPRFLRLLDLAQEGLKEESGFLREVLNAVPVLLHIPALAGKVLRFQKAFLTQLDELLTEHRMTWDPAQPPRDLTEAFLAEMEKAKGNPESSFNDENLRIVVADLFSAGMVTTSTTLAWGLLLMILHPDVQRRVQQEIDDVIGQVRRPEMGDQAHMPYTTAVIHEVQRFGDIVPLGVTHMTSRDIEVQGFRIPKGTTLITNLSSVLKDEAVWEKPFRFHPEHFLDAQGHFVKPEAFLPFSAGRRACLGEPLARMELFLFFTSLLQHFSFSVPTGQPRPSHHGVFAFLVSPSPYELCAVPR
Chain of CYP450 2C9 (P11712 whole entry): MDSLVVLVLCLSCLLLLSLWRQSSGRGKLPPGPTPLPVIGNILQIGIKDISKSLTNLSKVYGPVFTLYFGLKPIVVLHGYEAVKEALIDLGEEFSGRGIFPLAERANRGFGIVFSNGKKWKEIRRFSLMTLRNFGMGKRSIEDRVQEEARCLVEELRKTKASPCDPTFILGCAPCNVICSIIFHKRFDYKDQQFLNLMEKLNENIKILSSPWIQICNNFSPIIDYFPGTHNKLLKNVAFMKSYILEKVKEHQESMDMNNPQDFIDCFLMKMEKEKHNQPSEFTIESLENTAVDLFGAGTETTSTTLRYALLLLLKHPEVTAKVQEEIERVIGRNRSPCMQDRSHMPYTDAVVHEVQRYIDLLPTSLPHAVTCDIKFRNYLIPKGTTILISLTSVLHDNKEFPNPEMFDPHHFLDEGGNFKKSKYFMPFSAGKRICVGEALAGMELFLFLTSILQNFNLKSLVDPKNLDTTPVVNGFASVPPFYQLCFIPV

For `Cc1cc(C)cc(N2C=Nc3cc(Cl)c(-c4cccc(O)c4)cc3C2C(=O)NC[C@H](C)N)c1` (some centres unmarked) [Compound 5], the “sst2 agonist activity (in words)” value (human sst2 receptor; human sst2, cAMP) was “completely suppressed its ability to reduce cAMP production”.
With `Cc1cc(C)cc(N2C=Nc3ccc(-c4cccc(O)c4)cc3C2C(=O)N(C)C[C@H](C)N)c1` (some centres unmarked) [Compound 6] the “decrease of sst2 agonist activity relative to compound 4” value (human sst2 receptor; human sst2, cAMP) was “more than 10 fold”.
In the case of `CC[C@H](N)CN(C)C(=O)C1c2cc(-c3cccc(O)c3)c(Cl)cc2N=CN1c1cc(C)cc(C)c1` (some centres unmarked) [Compound 7], the “sst2 pEC50±SEM” value (human sst2 receptor) is reported as 8.0 ± 0.1 and the “enhancement of sst2 potency relative to compound 4” value (human sst2 receptor; human sst2, cAMP) is reported as “about 3 fold”.
In the case of `CC[C@H](N)CN(C)C(=O)C1c2cc(-c3cccc(O)c3)c(C)cc2N=CN1c1cc(C)cc(C)c1` (some centres unmarked) [Compound 8], the “sst2 pEC50±SEM” value (human sst2 receptor) is reported as 8.4 ± 0.2.
For `Cc1cc(C)cc(N2C=Nc3cc(C)c(-c4cccc(O)c4)cc3C2C(=O)N(C)C[C@@H]2CCCN2)c1` (some centres unmarked) [Compound 9], the “sst2 pEC50±SEM” value (human sst2 receptor) was 8.9 ± 0.1.
In the case of `Cc1cc(Cl)cc(N2C=Nc3cc(C)c(-c4cccc(O)c4)cc3C2C(=O)N(C)C[C@@H]2CCCN2)c1` (some centres unmarked) [Compound 10], the “sst2 pEC50±SEM” value (human sst2 receptor) is reported as 9.5 ± 0.2.
With `Cc1cc(F)cc(N2C=Nc3cc(C)c(-c4cccc(O)c4)cc3C2C(=O)N(C)C[C@@H]2CCCN2)c1` (some centres unmarked) [Compound 11] the “sst2 pEC50±SEM” value (human sst2 receptor) was 9.0 ± 0.1.
With `Cc1cc(Cl)cc(N2C=Nc3cc(C)c(-c4ccccc4)cc3C2C(=O)N(C)C[C@@H]2CCCN2)c1` (some centres unmarked) [Compound 12] the “sst2 pEC50±SEM” value (human sst2 receptor) was 7.3 ± 0.0 and the “sst2 agonist activity (in words)” value (human sst2 receptor; human sst2, cAMP) was “significantly diminished sst2 agonist activity”.
With `Cc1cc(Cl)cc(N2C=Nc3cc(C)c(-c4cccc(C#N)c4)cc3C2C(=O)N(C)C[C@@H]2CCCN2)c1` (some centres unmarked) [Compound 13] the “sst2 pEC50±SEM” value (human sst2 receptor) was 8.3 ± 0.1.
For `Cc1cc(Cl)cc(N2C=Nc3cc(C)c(-c4cncc(C#N)c4)cc3C2C(=O)N(C)C[C@@H]2CCCN2)c1` (some centres unmarked) [Compound 14], the “sst2 pEC50±SEM” value (human sst2 receptor) was 7.9 ± 0.4.
In the case of `Cc1cc(Cl)cc(N2C=Nc3cc(C)c(-c4cccc(C(F)(F)F)c4)cc3C2C(=O)N(C)C[C@@H]2CCCN2)c1` (some centres unmarked) [Compound 15], the “sst2 pEC50±SEM” value (human sst2 receptor) is reported as 7.3 ± 0.0.
In the case of `Cc1cc(Cl)cc(N2C=Nc3cc(C)c(-c4cccc(Cl)c4)cc3C2C(=O)N(C)C[C@@H]2CCCN2)c1` (some centres unmarked) [Compound 16], the “sst2 pEC50±SEM” value (human sst2 receptor) is reported as 7.4 ± 0.0.
For `Cc1cc(Cl)cc(N2C=Nc3cc(C)c(-c4cnn(C)c4)cc3C2C(=O)N(C)C[C@@H]2CCCN2)c1` (some centres unmarked) [Compound 17], the “sst2 pEC50±SEM” value (human sst2 receptor) was 6.8 ± 0.1 and the “sst2 agonist activity (in words)” value (human sst2 receptor; human sst2, cAMP) was “substantially reduced potency”.
For `Cc1cc(Cl)cc(N2C=Nc3cc(C)c(-c4cc(F)cc(F)c4)cc3C2C(=O)N(C)C[C@@H]2CCCN2)c1` (some centres unmarked) [Compound 19], the “sst2 pEC50±SEM” value (human sst2 receptor) was 8.4 ± 0.0.
For `COc1cc(F)cc(-c2cc3c(cc2C)N=CN(c2cc(C)cc(Cl)c2)C3C(=O)N(C)C[C@@H]2CCCN2)c1` (some centres unmarked) [Compound 20], the “sst2 pEC50±SEM” value (human sst2 receptor) was 8.2 ± 0.1.
With `Cc1cc(Cl)cc(N2C=Nc3cc(C)c(-c4cccc(NS(C)(=O)=O)c4)cc3C2C(=O)N(C)C[C@@H]2CCCN2)c1` (some centres unmarked) [Compound 23] the “sst2 pEC50±SEM” value (human sst2 receptor) was 6.9 ± 0.1.
In the case of `Cc1cc(Cl)cc(N2C=Nc3cc(C)c(-c4ccc5[nH]c(=O)[nH]c5c4)cc3C2C(=O)N(C)C[C@@H]2CCCN2)c1` (some centres unmarked) [Compound 24], the “sst2 pEC50±SEM” value (human sst2 receptor) is reported as 8.3 ± 0.2.
For `Cc1cc(Cl)cc(N2C=Nc3cc(C)c(-c4cncc(O)c4)cc3C2C(=O)N(C)C[C@@H]2CCCN2)c1` (some centres unmarked) [Compound 25], the “sst2 pEC50±SEM” value (human sst2 receptor) was 8.1 ± 0.1.
In the case of `Cc1cc(Cl)cc(N2C=Nc3cc(C)c(-c4cccc(F)c4O)cc3C2C(=O)N(C)C[C@@H]2CCCN2)c1` (stereo partly drawn) [Compound 28, 3-(3-chloro-5-methylphenyl)-6-(3-fluoro-2-hydroxyphenyl)-N,7-dimethyl-N-{[(2S)-pyrrolidin-2-yl]methyl}-3,4-dihydroquinazoline-4-carboxamide], the “hERG inhibition (in words)” value (hERG channel) is reported as “moderate inhibitors; also recorded: weak inhibition”, the “CYP 3A4 inhibition (in words)” value (CYP450 3A4) is reported as “little inhibition; also recorded: no inhibition” and the “CYP 2C9 inhibition (in words)” value (CYP450 2C9) is reported as “little inhibition; also recorded: no inhibition”. For the same compound, the “CYP 2C19 inhibition (in words)” value (CYP450 2C19) was “little inhibition; also recorded: no inhibition”, the “CYP 2D6 inhibition (in words)” value (CYP450 2D6) was “little inhibition; also recorded: no inhibition” and the “oral exposure (in words)” value [1] was “limited oral exposure”.
For `Cc1cc(Cl)cc(N2C=Nc3cc(C)c(-c4cc(F)ccc4O)cc3C2C(=O)N(C)C[C@@H]2CCCN2)c1` (some centres unmarked) [Compound 29], the “sst2 pEC50±SEM” value (human sst2 receptor) was 8.7 ± 0.0.
With `Cc1cc(Cl)cc(N2C=Nc3cc(C)c(-c4cc(O)cc(C#N)c4)cc3C2C(=O)N(C)C[C@@H]2CCCN2)c1` (some centres unmarked) [Compound 30] the “sst2 pEC50±SEM” value (human sst2 receptor) was 9.4 ± 0.1 and the “sst2 agonist activity (in words)” value (human sst2 receptor; human sst2, cAMP) was “tolerable”.
For `Cc1cc(Cl)cc(N2C=Nc3cc(C)c(-c4cc(F)cc(C(N)=O)c4)cc3C2C(=O)N(C)C[C@@H]2CCCN2)c1` (some centres unmarked) [Compound 31], the “sst2 agonist activity (in words)” value (human sst2 receptor; human sst2, cAMP) was “as potent as compound 26” and the “hERG inhibition (in words)” value (hERG channel) was “moderate inhibitors”.
